Columns and labels:
Assay in all cases: In vitro competitive activity-based protein profiling (gel-based, FP-Rh or HT-01 probe)
Assay type in all cases: biochemical
[1] = target: T1, ABHD6 (Mus musculus, UniProt Q8R2Y0); details: for inhibition at 1 µM: 1 μM inhibitor, read-out: % Inhibition at 1 μM, C = ABHD6; for inhibition at 10 µM: 10 μM inhibitor, read-out: % Inhibition at 10 μM, C = ABHD6
T1 construct: Proteomes (mouse brain membrane fraction or cell lysates); from tissue; host or cells: mouse brain membrane fraction (or cell lysates, not specified)
T1 sequence (Q8R2Y0 1-336): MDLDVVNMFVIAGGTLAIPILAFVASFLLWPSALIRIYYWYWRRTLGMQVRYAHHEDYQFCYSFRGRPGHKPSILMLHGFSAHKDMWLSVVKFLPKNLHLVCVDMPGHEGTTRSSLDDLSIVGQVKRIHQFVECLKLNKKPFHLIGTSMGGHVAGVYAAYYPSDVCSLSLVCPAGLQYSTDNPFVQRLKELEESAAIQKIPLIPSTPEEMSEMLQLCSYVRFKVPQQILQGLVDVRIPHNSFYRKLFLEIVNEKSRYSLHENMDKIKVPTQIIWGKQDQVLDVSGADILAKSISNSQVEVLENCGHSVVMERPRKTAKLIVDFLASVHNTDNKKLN
Procedure, shortened: (§1)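 Steps: inhibitor dilutions + proteome (1.0 mg/mL), 30 min, 37° C; add FP-Rh or HT-01 (50 μM DMSO stock), 30 min, 37° C; quench in SDS buffer; SDS-PAGE; gel imaging; band densitometry.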

[2] = target: T2, FAAH (Mus musculus, UniProt O08914); details: for inhibition at 1 µM: 1 μM inhibitor, read-out: % Inhibition at 1 μM, B = FAAH; for inhibition at 10 µM: 10 μM inhibitor, read-out: % Inhibition at 10 μM, B = FAAH; for IC50: mouse brain membrane fraction or cell lysates, 30 min preincubation at 37° C., read-out: Mouse (IC50 value, nM) FAAH
T2 construct: Proteomes (mouse brain membrane fraction or cell lysates); from tissue; host or cells: mouse brain membrane fraction (or cell lysates, not specified)
T2 sequence (O08914 1-579): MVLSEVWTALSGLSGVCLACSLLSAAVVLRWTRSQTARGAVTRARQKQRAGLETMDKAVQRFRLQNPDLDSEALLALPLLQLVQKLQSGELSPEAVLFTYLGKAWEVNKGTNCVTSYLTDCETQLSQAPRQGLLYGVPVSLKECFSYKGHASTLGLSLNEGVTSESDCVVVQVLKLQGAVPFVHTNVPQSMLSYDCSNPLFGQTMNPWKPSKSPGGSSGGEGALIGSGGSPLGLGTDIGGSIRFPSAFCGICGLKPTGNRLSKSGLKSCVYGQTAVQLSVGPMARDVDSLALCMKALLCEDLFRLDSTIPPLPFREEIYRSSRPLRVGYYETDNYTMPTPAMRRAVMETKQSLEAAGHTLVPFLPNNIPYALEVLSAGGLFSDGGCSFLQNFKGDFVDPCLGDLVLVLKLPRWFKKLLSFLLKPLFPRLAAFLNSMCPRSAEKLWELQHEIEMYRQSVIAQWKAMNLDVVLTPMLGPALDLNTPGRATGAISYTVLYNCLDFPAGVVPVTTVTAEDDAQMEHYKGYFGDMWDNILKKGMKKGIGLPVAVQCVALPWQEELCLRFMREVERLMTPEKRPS
Procedure, shortened: as §1

[3] = target: T3, MAGL (Mus musculus, UniProt O35678); details: for inhibition at 1 µM: 1 μM inhibitor; for inhibition at 10 µM: 10 μM inhibitor
T3 construct: Proteomes (mouse brain membrane fraction or cell lysates); from tissue; host or cells: mouse brain membrane fraction (or cell lysates, not specified)
T3 sequence (O35678 1-303): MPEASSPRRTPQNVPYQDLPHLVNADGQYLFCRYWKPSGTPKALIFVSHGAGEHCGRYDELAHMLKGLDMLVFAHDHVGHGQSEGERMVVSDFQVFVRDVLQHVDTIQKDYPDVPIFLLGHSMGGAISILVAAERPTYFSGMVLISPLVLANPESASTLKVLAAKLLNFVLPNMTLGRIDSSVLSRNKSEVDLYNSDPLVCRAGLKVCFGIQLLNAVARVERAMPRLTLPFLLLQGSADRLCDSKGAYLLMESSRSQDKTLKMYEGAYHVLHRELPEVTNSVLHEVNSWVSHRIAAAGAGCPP
Procedure, shortened: as §1

[4] = target: T4, PLA2G7 (Mus musculus, UniProt Q60963); details: for inhibition at 1 µM: 1 μM inhibitor, read-out: % Inhibition at 1 μM, D = PLA2G7; for inhibition at 10 µM: 10 μM inhibitor, read-out: % Inhibition at 10 μM, D = PLA2G7
T4 construct: Proteomes (mouse brain membrane fraction or cell lysates); from tissue; host or cells: mouse brain membrane fraction (or cell lysates, not specified)
T4 sequence (Q60963 22-440): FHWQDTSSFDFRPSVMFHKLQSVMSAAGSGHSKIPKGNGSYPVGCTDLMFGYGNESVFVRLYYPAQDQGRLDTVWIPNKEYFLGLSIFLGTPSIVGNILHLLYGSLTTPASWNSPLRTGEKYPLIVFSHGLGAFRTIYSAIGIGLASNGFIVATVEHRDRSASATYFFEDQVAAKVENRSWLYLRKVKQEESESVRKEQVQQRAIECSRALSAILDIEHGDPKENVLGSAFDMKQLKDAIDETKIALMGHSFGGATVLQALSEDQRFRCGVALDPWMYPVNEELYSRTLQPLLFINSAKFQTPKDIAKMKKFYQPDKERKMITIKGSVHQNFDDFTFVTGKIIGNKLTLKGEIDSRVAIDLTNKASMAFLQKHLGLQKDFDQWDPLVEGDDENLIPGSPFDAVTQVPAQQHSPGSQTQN
Procedure, shortened: as §1

O=C(c1cnn(C(=O)N2CCN(Cc3nccs3)CC2)c1)N1CCCC1 [Example 83, Pyrrolidin-1-yl(1-(4-(thiazol-2-ylmethyl)piperazine-1-carbonyl)-1H-pyrazol-4-yl)methanone]
inhibition at 1 µM [1]: < 25% | inhibition at 10 µM [1]: > 75% | inhibition at 1 µM [2]: < 25% | inhibition at 10 µM [2]: > 75% | inhibition at 1 µM [3]: < 25% | inhibition at 10 µM [3]: < 25% | inhibition at 1 µM [4]: < 25% | inhibition at 10 µM [4]: > 75%

O=C(c1cnn(C(=O)N2CCN(Cc3cncnc3)CC2)c1)N1CCCC1 [Example 84, (4-(Pyrimidin-5-ylmethyl)piperazin-1-yl)(4-(pyrrolidine-1-carbonyl)-1H-pyrazol-1-yl)methanone]
inhibition at 1 µM [1]: < 25% | inhibition at 10 µM [1]: 25 to 75% | inhibition at 1 µM [2]: < 25% | inhibition at 10 µM [2]: < 25% | inhibition at 1 µM [3]: < 25% | inhibition at 10 µM [3]: < 25% | inhibition at 1 µM [4]: < 25% | inhibition at 10 µM [4]: > 75%

Cc1cc(-c2ccccc2)ccc1CN1CCN(C(=O)n2cc(C(=O)N3CCCC3)cn2)CC1 [Example 85, (4-((3-Methyl-[1,1′-biphenyl]-4-yl)methyl)piperazin-1-yl)(4-(pyrrolidine-1-carbonyl)-1H-pyrazol-1-yl)methanone]
inhibition at 1 µM [1]: > 75% | inhibition at 10 µM [1]: > 75% | IC50 ([1]; mouse brain membrane fraction or cell lysates, 30 min preincubation at 37° C., read-out: Mouse (IC50 value, nM) ABHD6): 100 to 1000 nM | inhibition at 1 µM [2]: > 75% | inhibition at 10 µM [2]: > 75% | IC50 [2]: < 100 nM | inhibition at 1 µM [3]: > 75% | inhibition at 10 µM [3]: > 75% | IC50 ([3]; mouse brain membrane fraction or cell lysates, 30 min preincubation at 37° C., read-out: Mouse (IC50 value, nM) MAGL): 100 to 1000 nM | inhibition at 1 µM [4]: < 25% | inhibition at 10 µM [4]: > 75%

O=C(c1cnn(C(=O)N2CCN(Cc3ccc4c(c3)OCO4)CC2)c1)N1CCC1 [Example 86, Azetidin-1-yl(1-(4-(benzo[d][1,3]dioxol-5-ylmethyl)piperazine-1-carbonyl)-1H-pyrazol-4-yl)methanone]
inhibition at 1 µM [1]: 25 to 75% | inhibition at 10 µM [1]: > 75% | inhibition at 1 µM [2]: > 75% | inhibition at 10 µM [2]: > 75% | inhibition at 1 µM [3]: < 25% | inhibition at 10 µM [3]: > 75% | inhibition at 1 µM [4]: < 25% | inhibition at 10 µM [4]: > 75%

O=C(c1cnn(C(=O)N2CCN(Cc3ccncc3)CC2)c1)N1CCC1 [Example 87, Azetidin-1-yl(1-(4-(pyridin-4-ylmethyl)piperazine-1-carbonyl)-1H-pyrazol-4-yl)methanone]
inhibition at 1 µM [1]: < 25% | inhibition at 10 µM [1]: > 75% | inhibition at 1 µM [2]: < 25% | inhibition at 10 µM [2]: > 75% | inhibition at 1 µM [3]: < 25% | inhibition at 10 µM [3]: < 25% | inhibition at 1 µM [4]: < 25% | inhibition at 10 µM [4]: > 75%

O=C(c1cnn(C(=O)N2CCN(Cc3cccnc3)CC2)c1)N1CCC1 [Example 88, Azetidin-1-yl(1-(4-(pyridin-3-ylmethyl)piperazine-1-carbonyl)-1H-pyrazol-4-yl)methanone]
inhibition at 10 µM [1]: > 75% | inhibition at 10 µM [2]: 25 to 75% | inhibition at 10 µM [3]: < 25% | inhibition at 10 µM [4]: > 75%

O=C(c1cnn(C(=O)N2CCN(Cc3ccccn3)CC2)c1)N1CCC1 [Example 89, Azetidin-1-yl(1-(4-(pyridin-2-ylmethyl)piperazine-1-carbonyl)-1H-pyrazol-4-yl)methanone]
inhibition at 10 µM [1]: 25 to 75% | inhibition at 10 µM [2]: > 75% | inhibition at 10 µM [3]: < 25% | inhibition at 10 µM [4]: > 75%

O=C(c1cnn(C(=O)N2CCN(Cc3ccncn3)CC2)c1)N1CCC1 [Example 90, Azetidin-1-yl(1-(4-(pyrimidin-4-ylmethyl)piperazine-1-carbonyl)-1H-pyrazol-4-yl)methanone]
inhibition at 1 µM [1]: < 25% | inhibition at 10 µM [1]: > 75% | inhibition at 10 µM [2]: 25 to 75% | inhibition at 10 µM [3]: < 25% | inhibition at 1 µM [4]: < 25% | inhibition at 10 µM [4]: > 75%

O=C(c1cnn(C(=O)N2CCN(Cc3nccs3)CC2)c1)N1CCC1 [Example 91, Azetidin-1-yl(1-(4-(thiazol-2-ylmethyl)piperazine-1-carbonyl)-1H-pyrazol-4-yl)methanone]
inhibition at 1 µM [1]: < 25% | inhibition at 10 µM [1]: > 75% | inhibition at 10 µM [2]: > 75% | IC50 [2]: > 1000 nM | inhibition at 10 µM [3]: < 25% | inhibition at 1 µM [4]: < 25% | inhibition at 10 µM [4]: > 75%
